Experimental findings from US10493087B2, “Sialylation-increasing therapies for diseases associated with oxidative stress” (THE UNITED STATES OF AMERICA, AS REPRESENTED BY THE …, priority 2015, dated 2019) are described below.

For assay [1], the system named is Gne−/−hGNED176V-Tg mice. Put plainly: Motor performance analysis (treadmill performance and endurance tests). The assay is classed as in vivo. The note with it: vs untreated. How it is done:
N-Acetylcysteine (NAC) Treatment Protocols: […] were randomly divided into high dose NAC (n=13), low dose NAC (n=13), or untreated control (n=17) groups. […] There was no difference in water consumption between mice receiving NAC supplemented water or regular drinking water. […] Three littermates groups (high dose NAC; n=7, low dose NAC; n=7, or untreated control; n=6) were treated in the same way. Motor performance analysis: The motor performance was evaluated using treadmill exercise as previously reported (9, 10) with minor modification. Briefly, after 7 days of acclimation on the treadmill, two exercise tests were performed on separate days. […] The time of exhaustion was used to calculate the total distance of the mice ran during the exercise. The endurance exercise consisted of a 60-min treadmill run at 20 m/min with a […] incline, during which the number of beam breaks or rests were recorded. Both tests were done twice with 2 days rest in between.

For assay [2], the system named is Gne−/−hGNED176V-Tg mice. Nature of the assay: Fiber diameter analysis of gastrocnemius muscles. The assay is classed as in vivo. The note with it: for Mean fiber diameter: gastrocnemius. How it is done:
N-Acetylcysteine (NAC) Treatment Protocols: […] were randomly divided into high dose NAC (n=13), low dose NAC (n=13), or untreated control (n=17) groups. […] There was no difference in water consumption between mice receiving NAC supplemented water or regular drinking water. […] Three littermates groups (high dose NAC; n=7, low dose NAC; n=7, or untreated control; n=6) were treated in the same way. Fiber diameter analysis: Muscle tissues were processed according to previous protocols (8-10). For the morphometric analysis, we stained frozen transverse sections (6 μm) of gastrocnemius muscles with rabbit polyclonal antibody to caveolin 3 (BD Transduction Laboratories), followed by Alexa fluor-conjugated goat IgG antibody to rabbit (Invitrogen). Five randomly selected images per mouse were used to measure fiber diameters using ImageJ software (NIH). Minimal inner diameters of 1,000 myofibers from each mouse were measured.

Assay [3] concerns Gne−/−hGNED176V-Tg mice. Nature of the assay: Muscle contractile properties analysis (gastrocnemius). The assay is classed as in vivo. Particulars: for Peak isometric twitch force (Pt) / Maximum tetanic force (Po): gastrocnemius; for Peak isometric twitch force (Pt): untreated 167.1±6.0; for Maximum tetanic force (Po): untreated 526.7±24.1; for Specific isometric force (Pt/CSA): untreated 16.3±2.6; for Specific tetanic force (Po/CSA): untreated 51.4±8.9. How it is done:
N-Acetylcysteine (NAC) Treatment Protocols: […] were randomly divided into high dose NAC (n=13), low dose NAC (n=13), or untreated control (n=17) groups. […] There was no difference in water consumption between mice receiving NAC supplemented water or regular drinking water. […] Three littermates groups (high dose NAC; n=7, low dose NAC; n=7, or untreated control; n=6) were treated in the same way. Muscle contractile properties analysis: The contractile properties of the gastrocnemius and tibialis anterior muscles were measured according to previous protocol ([…] et al., Nat Med. 2009; 15:690-695; […] et al., Physiol Genomics. 2008; 35:106-115). After the mouse was anesthetized with intraperitoneal sodium pentobarbital (50 mg per kg body weight), the entire skeletal muscles were isolated along with the proximal bone of origin intact. Then the muscle was mounted in a vertical chamber and connected to a force-displacement and length servo system. […] With the muscle held at L0 and duration changed to 3 ms, the force developed during trains of stimulation pulses (10 to 100 Hz) was recorded and the maximum absolute tetanic force (Po) was determined. Absolute force was normalized with the physiologic cross-sectional area (CSA; muscle weight divided by the product of L0 and 1.066 g/cm^3) to obtain specific force (Pt/CSA and Po/CSA).

Another assay relates to GNE Myopathy myotubes. Nature of the assay: Intracellular ROS (DCF fluorescence) in cultured myotubes. Type of assay: cell-based, mice. The note with it: GNE Myopathy myotubes treated with 5 mM for 72 h; mean±SEM; untreated 1113±30, littermate controls 115±15. How it is done:
Cell cultures and myotubes analysis: Myocytes from Gne^−/−hGNED176V-Tg mice and littermate controls were proliferated in DMEM containing 20% fetal bovine serum and 1% chicken embryo extracts in a 5% CO2 and induced to differentiation in a serum free medium, OPTIPRO™ SFM (Gibco), to make the cells hyposialylated. Where indicated, myotubes were treated with 5 mM NeuAc (Japan Food and Liquor Alliance) or 5 mM NAC (Sigma) for 72 h.
For the analysis of intracellular ROS, a popular fluorescence-based probe, 2′,7′-dichlorodihydrofluorescein diacetate (DCFH-DA) (Wang et al., Free Radical Biology and Medicine. 1999; 27:612-616; Halliwell and Whiteman, Br J Pharmacol. 2004; 142:231-255) was used. Cells were loaded with 5 μM DCFH-DA (Invitrogen) in PBS for an hour and recovered with phenol red-free DMEM (Gibco) for 30 min at 37° C. in a 5% CO2 incubator. Then the cells were placed in a CYTOFLUOR® Series 4000 multi-well fluorescence plate reader (PerSeptive Biosystems) with temperature maintained at 37° C. The excitation filter was set at 485 nm and the emission filter was set at 530 nm. The fluorescence from each well was captured and recorded.

For the next assay, the system named is β-amyloid. Put plainly: β-amyloid expression by ELISA in muscle homogenates. The assay is classed as in vivo, mice. The note with it: after NAC treatment. For orientation: ELISA stands for enzyme-linked immunosorbent assay.

Turning to `CC(=O)N[C@@H](CS)C(=O)O` [NAC, N-acetylcysteine], the “Treadmill performance and endurance tests” value in the assay on Gne−/−hGNED176V-Tg mice [1] (high dose (HD) 1.5 g/kg per day in drinking water) was “significantly improved”. Moreover, the “Motor function (treadmill)” value with Gne−/−hGNED176V-Tg mice [1] (low dose (LD) 0.15 g/kg per day in drinking water) is listed as “better motor function”. The compound further had a Mean fiber diameter with Gne−/−hGNED176V-Tg mice [2] (HD group 1.5 g/kg per day, p<0.05 vs untreated 31.7±0.8) of 35.2±1.2 μm. In the assay on Gne−/−hGNED176V-Tg mice [2] (LD group 0.15 g/kg per day, p<0.01 vs untreated 31.7±0.8), this compound registered a Mean fiber diameter of 35.7±0.8 μm. Further, in the assay on Gne−/−hGNED176V-Tg mice [2] (some healthy control (littermate) mice with NAC supplement), the “Average fiber diameters in healthy control mice” value was “increased”. Moreover, in the assay on Gne−/−hGNED176V-Tg mice [3] (HD group 1.5 g/kg per day), the “Peak isometric twitch force (Pt)” value turned out to be 228.5±15.0 mN, the “Maximum tetanic force (Po)” value was 687.5±52.4 mN, the “Specific isometric force (Pt/CSA)” value was found to be 22.5±5.1 mN/mm^2 and the “Specific tetanic force (Po/CSA)” value was 67.5±15.7 mN/mm^2. Besides, in the assay on Gne−/−hGNED176V-Tg mice [3] (LD group 0.15 g/kg per day), the “Peak isometric twitch force (Pt)” value was found to be 233.6±10.0 mN, the “Maximum tetanic force (Po)” value was found to be 735.0±43.0 mN, the “Specific isometric force (Pt/CSA)” value came to 23.4±3.3 mN/mm^2 and the “Specific tetanic force (Po/CSA)” value came to 73.5±13.5 mN/mm^2. Further, in the assay with Gne−/−hGNED176V-Tg mice [3] (littermate control mice with NAC supplement), the “Increase of absolute contractile forces (Pt and Po) in littermate mice” value was “not statistically significant”. Further, the “Mean DCF fluorescence (intracellular ROS generation)” value in the assay with GNE Myopathy myotubes came to 191±10 AFU. Besides, the “β-amyloid expression by ELISA in muscle homogenates” value with β-amyloid was “decreased”.
